According to article PMC10169810, “Ligand-induced activation and G protein coupling of prostaglandin F2α receptor” (Nature Communications, 2023):
Values joined by “and” are separate entries in the source; they are usually repeats but may differ in a detail not shown here. Equal values may be shown once. “Also recorded” adds a separate entry of the source.

Tests used:
Type in all cases: cell-based
human FP (WT) = target: T1, human FP (WT) (Homo sapiens, UniProt P43088); test: IP-One (IP1) accumulation assay, wild-type FP
T1 construct: Flag; expressed in transfected cells; host or cells: AD293 cells
Method: (§1) IP-One production was measured using the IP-One HTRF kit (Cisbio)[50]. Briefly, AD293 cells (Agilent) were grown to a density of 400,000–500,000 cells per mL and then […] with separate plasmids at a suitable concentration. The culture was collected by centrifugation 24 h after incubation at 37 °C in 5% CO2 with a Stimulation Buffer. The cell suspension was then dispensed in a white 384-well plate at a volume of 7 μl per well before adding 7 μl of ligands. The mixture was incubated for 1 h at 37 °C. IP-One-d2 and anti-IP-One Cryptate dissolved in Lysis Buffer (3 μl each) were subsequently added and incubated for 15-30 min at room temperature before measurement. Intracellular IP-One measurement was carried out with the IP-One HTRF kit and EnVision multi-plate reader (PerkinElmer) according to the manufacturer’s instructions. Data were normalized to the baseline response of the ligand. pEC50 Emin, and Emax for each curve were calculated by GraphPad Prism 8.0. ∆pEC50 equals pEC50 of agonists to specific Mutant minus pEC50 of agonists to WT. Data are presented as mean values ± SEM; n = 3 independent samples; n.s. no significant; *p < 0.05; **p < 0.01; ***p < 0.001.

FP S33A = target: T2, FP S33A (Homo sapiens, UniProt P43088, S33A); test: IP-One accumulation assay, FP S33A mutant
T2 construct: Flag; expressed in transfected cells; host or cells: AD293 cells
Method: as §1

FP H81A = target: T3, FP H81A (Homo sapiens, UniProt P43088, H81A); test: IP-One accumulation assay, FP H81A mutant; details: H81 mutated to alanine vs WT FP
T3 construct: Flag; expressed in transfected cells; host or cells: AD293 cells
Method: as §1

FP Y92A = target: T4, FP Y92A (Homo sapiens, UniProt P43088, Y92A); test: IP-One accumulation assay, FP Y92A mutant; details: Y92 mutant (alanine) vs WT FP
T4 construct: Flag; expressed in transfected cells; host or cells: AD293 cells
Method: as §1

FP M115A = target: T5, FP M115A (Homo sapiens, UniProt P43088, M115A); test: IP-One accumulation assay, FP M115A mutant
T5 construct: Flag; expressed in transfected cells; host or cells: AD293 cells
Method: as §1

FP S118A = target: T6, FP S118A (Homo sapiens, UniProt P43088, S118A); test: IP-One accumulation assay, FP S118A mutant; details: S118A mutant vs WT FP; IP1 accumulation, AD293 cells; single values of n = 3 independent samples
T6 construct: Flag; expressed in transfected cells; host or cells: AD293 cells
Method: as §1

FP T184A = target: T7, FP T184A (Homo sapiens, UniProt P43088, T184A); test: IP-One accumulation assay, FP T184A mutant; details: T184 mutant (alanine) vs WT FP
T7 construct: Flag; expressed in transfected cells; host or cells: AD293 cells
Method: as §1

FP F205A = target: T8, FP F205A (Homo sapiens, UniProt P43088, F205A); test: IP-One accumulation assay, FP F205A mutant; details: F205 to alanine vs WT FP
T8 construct: Flag; expressed in transfected cells; host or cells: AD293 cells
Method: as §1

FP W262A = target: T9, FP W262A (Homo sapiens, UniProt P43088, W262A); test: IP-One accumulation assay, FP W262A mutant; details: W262 to alanine vs WT FP
T9 construct: Flag; expressed in transfected cells; host or cells: AD293 cells
Method: as §1

FP F265A = target: T10, FP F265A (Homo sapiens, UniProt P43088, F265A); test: IP-One accumulation assay, FP F265A mutant
T10 construct: Flag; expressed in transfected cells; host or cells: AD293 cells
Method: as §1

FP I290A = target: T11, FP I290A (Homo sapiens, UniProt P43088); test: IP-One accumulation assay, FP I290A mutant; details: L290 to alanine vs WT FP
T11 construct: Flag; expressed in transfected cells; host or cells: AD293 cells
Method: as §1

FP R291A = target: T12, FP R291A (Homo sapiens, UniProt P43088, R291A); test: IP-One accumulation assay, FP R291A mutant
T12 construct: Flag; expressed in transfected cells; host or cells: AD293 cells
Method: as §1

FP T294A = target: T13, FP T294A (Homo sapiens, UniProt P43088, T294A); test: IP-One accumulation assay, FP T294A mutant
T13 construct: Flag; expressed in transfected cells; host or cells: AD293 cells
Method: as §1

FP Q297A = target: T14, FP Q297A (Homo sapiens, UniProt P43088, Q297A); test: IP-One accumulation assay, FP Q297A mutant; details: Q297A mutant vs WT FP; IP1 accumulation, AD293 cells; single values of n = 3 independent samples
T14 construct: Flag; expressed in transfected cells; host or cells: AD293 cells
Method: as §1

FP L123A = target: T15, FP L123A (Homo sapiens, UniProt P43088, L123A); test: IP-One accumulation assay, FP L123A mutant; details: L123A mutant vs WT FP
T15 construct: Flag; expressed in transfected cells; host or cells: AD293 cells
Method: as §1

FP L213A = target: T16, FP L213A (Homo sapiens, UniProt P43088, L213A); test: IP-One accumulation assay, FP L213A mutant; details: L213A mutant vs WT FP
T16 construct: Flag; expressed in transfected cells; host or cells: AD293 cells
Method: as §1

FP mutant of E132 = target: T17, FP mutant of E132 (Homo sapiens, UniProt P43088, E132A); test: IP-One accumulation assay, FP E132 mutant; details: E132 mutant vs WT FP
T17 construct: Flag; expressed in transfected cells; host or cells: AD293 cells
Method: as §1

FP R133A = target: T18, FP R133A (Homo sapiens, UniProt P43088, R133A); test: IP-One accumulation assay, FP R133A mutant; details: for IP1 accumulation response to PGF2α (dose-response source data): FP R133A, replicate values
T18 construct: expressed in transfected cells; host or cells: AD293 cells
Method: as §1

FP mutant of C134 = target: T19, FP mutant of C134 (Homo sapiens, UniProt P43088, C134A); test: IP-One accumulation assay, FP C134 mutant; details: C134 mutant vs WT FP
T19 construct: expressed in transfected cells; host or cells: AD293 cells
Method: as §1

FP Q250A = target: T20, FP Q250A (Homo sapiens, UniProt P43088, Q250A); test: IP-One accumulation assay, FP Q250A mutant; details: Q250A mutant vs WT FP
T20 construct: expressed in transfected cells; host or cells: AD293 cells
Method: as §1

FP R308A = target: T21, FP R308A (Homo sapiens, UniProt P43088, R308A); test: IP-One accumulation assay, FP R308A mutant; details: R308A mutant vs WT FP
T21 construct: expressed in transfected cells; host or cells: AD293 cells
Method: as §1

T13 sequence (P43088 whole entry T294A): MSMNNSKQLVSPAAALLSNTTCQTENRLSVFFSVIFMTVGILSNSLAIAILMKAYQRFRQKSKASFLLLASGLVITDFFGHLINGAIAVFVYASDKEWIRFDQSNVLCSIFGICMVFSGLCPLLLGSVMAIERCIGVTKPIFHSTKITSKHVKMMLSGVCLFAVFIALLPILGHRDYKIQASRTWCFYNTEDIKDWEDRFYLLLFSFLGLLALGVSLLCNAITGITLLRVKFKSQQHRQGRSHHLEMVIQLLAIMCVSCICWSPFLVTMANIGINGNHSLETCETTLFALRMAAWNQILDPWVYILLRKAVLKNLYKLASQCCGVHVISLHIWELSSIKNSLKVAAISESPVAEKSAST
T5 sequence (P43088 whole entry M115A): as the sequence (P43088 whole entry T294A) above, with M115A, A294T counted along it
T18 sequence (P43088 whole entry R133A): as the sequence (P43088 whole entry T294A) above, with R133A, A294T counted along it
T2 sequence (P43088 whole entry S33A): as the sequence (P43088 whole entry T294A) above, with S33A, A294T counted along it
T10 sequence (P43088 whole entry F265A): as the sequence (P43088 whole entry T294A) above, with F265A, A294T counted along it
T1 sequence (P43088 whole entry): as the sequence (P43088 whole entry T294A) above, with A294T counted along it
T12 sequence (P43088 whole entry R291A): as the sequence (P43088 whole entry T294A) above, with R291A, A294T counted along it
T6 sequence (P43088 whole entry S118A): as the sequence (P43088 whole entry T294A) above, with S118A, A294T counted along it
T14 sequence (P43088 whole entry Q297A): as the sequence (P43088 whole entry T294A) above, with A294T, Q297A counted along it
T17 sequence (P43088 whole entry E132A): as the sequence (P43088 whole entry T294A) above, with E132A, A294T counted along it
T7 sequence (P43088 whole entry T184A): as the sequence (P43088 whole entry T294A) above, with T184A, A294T counted along it
T11 sequence (P43088 whole entry L290A): as the sequence (P43088 whole entry T294A) above, with L290A, A294T counted along it
T21 sequence (P43088 whole entry R308A): as the sequence (P43088 whole entry T294A) above, with A294T, R308A counted along it
T15 sequence (P43088 whole entry L123A): as the sequence (P43088 whole entry T294A) above, with L123A, A294T counted along it
T19 sequence (P43088 whole entry C134A): as the sequence (P43088 whole entry T294A) above, with C134A, A294T counted along it
T20 sequence (P43088 whole entry Q250A): as the sequence (P43088 whole entry T294A) above, with Q250A, A294T counted along it
T16 sequence (P43088 whole entry L213A): as the sequence (P43088 whole entry T294A) above, with L213A, A294T counted along it
T3 sequence (P43088 whole entry H81A): as the sequence (P43088 whole entry T294A) above, with H81A, A294T counted along it
T9 sequence (P43088 whole entry W262A): as the sequence (P43088 whole entry T294A) above, with W262A, A294T counted along it
T4 sequence (P43088 whole entry Y92A): as the sequence (P43088 whole entry T294A) above, with Y92A, A294T counted along it
T8 sequence (P43088 whole entry F205A): as the sequence (P43088 whole entry T294A) above, with F205A, A294T counted along it

- IP1 accumulation response to PGF2α (dose-response source data) (human FP (WT); log[PGF2α] -5, replicate values): 101.79 and 97.30 and 100.89
- IP1 accumulation response to PGF2α (dose-response source data) (human FP (WT); log[PGF2α] -6, replicate values): 98.67 and 93.94 and 92.75
- IP1 accumulation response to PGF2α (dose-response source data) (human FP (WT); log[PGF2α] -7, replicate values): 95.13 and 96.40 and 98.46
- IP1 accumulation response to PGF2α (dose-response source data) (human FP (WT); log[PGF2α] -8, replicate values): 91.30 and 99.44 and 87.48
- IP1 accumulation response to PGF2α (dose-response source data) (human FP (WT); log[PGF2α] -9, replicate values): 86.14 and 76.33 and 80.44
- IP1 accumulation response to PGF2α (dose-response source data) (human FP (WT); log[PGF2α] -10, replicate values): 72.71 and 62.76 and 60.52
- IP1 accumulation response to PGF2α (dose-response source data) (human FP (WT); log[PGF2α] -11, replicate values): 49.52 and 56.92 and 52.06
- IP1 accumulation response to PGF2α (dose-response source data) (human FP (WT); log[PGF2α] -14, replicate values): 42.81 and 48.67 and 43.43
- ∆pEC50 (pEC50 of agonist to mutant minus pEC50 to WT) (FP S33A; S33A mutant vs WT FP, IP1 accumulation, AD293 cells, single values of n = 3 independent samples): -1.0 and -1.1 and -0.8
- effect of mutation on agonist affinity / potency (in words) (FP S33A; S33 to alanine vs WT FP): significantly impaired the affinity
- reduction of activity to FP by mutation (FP H81A): over 1000 folds
- effect of mutation on agonist activity / potency (in words) (FP Y92A): decreased activity
- ∆pEC50 (pEC50 of agonist to mutant minus pEC50 to WT) (FP M115A; M115A mutant vs WT FP, IP1 accumulation, AD293 cells, single values of n = 3 independent samples): -2.0 and -2.1 and -1.9
- decrease of affinity by mutation (FP M115A; M115 mutated to alanine vs WT FP): approximately 100 fold
- ∆pEC50 (pEC50 of agonist to mutant minus pEC50 to WT) (FP S118A): 0.3 and 0.0 and 0.2
- effect of mutation on agonist activity / potency (in words) (FP T184A): decreased activity
- effect of mutation on agonist affinity (in words) (FP F205A): significantly impaired the affinity
- effect of mutation on agonist affinity / induced activation (in words) (FP W262A): significantly impaired the affinity
- ∆pEC50 (pEC50 of agonist to mutant minus pEC50 to WT) (FP F265A; F265A mutant vs WT FP, IP1 accumulation, AD293 cells, single values of n = 3 independent samples): -2.8 and -2.7
- effect of mutation on agonist affinity (in words) (FP F265A; F265 to alanine vs WT FP): significantly impaired the affinity
- effect of mutation on agonist affinity (in words) (FP I290A): significantly impaired the affinity
- ∆pEC50 (pEC50 of agonist to mutant minus pEC50 to WT) (FP R291A; R291A mutant vs WT FP, IP1 accumulation, AD293 cells, single values of n = 3 independent samples): -2.6 and -2.4 and -2.5
- effect of mutation on agonist activity / potency (in words) (FP R291A; R291 mutant (alanine) vs WT FP): decreased activity
- ∆pEC50 (pEC50 of agonist to mutant minus pEC50 to WT) (FP T294A; T294A mutant vs WT FP, IP1 accumulation, AD293 cells, single values of n = 3 independent samples): -2.2 and -2.3 and -2.0
- effect of mutation on agonist affinity / potency (in words) (FP T294A; T294 to alanine vs WT FP): significantly impaired the affinity
- ∆pEC50 (pEC50 of agonist to mutant minus pEC50 to WT) (FP Q297A): -1.9 and -1.8
- effect of mutation on agonist potency (in words) (FP L123A): decreased potency
- effect of mutation on agonist potency (in words) (FP L213A): decreased potency
- effect of mutation on agonist activity (in words) (FP mutant of E132): decreased PGF2α activity
- IP1 accumulation response to PGF2α (dose-response source data) (FP R133A; log[PGF2α] -5): 21.57 and 17.44 and 18.01
- IP1 accumulation response to PGF2α (dose-response source data) (FP R133A; log[PGF2α] -6): 20.73 and 14.37 and 13.23
- IP1 accumulation response to PGF2α (dose-response source data) (FP R133A; log[PGF2α] -7): 14.89 and 14.23 and 16.03
- IP1 accumulation response to PGF2α (dose-response source data) (FP R133A; log[PGF2α] -8): 16.86 and 14.19 and 10.91
- IP1 accumulation response to PGF2α (dose-response source data) (FP R133A; log[PGF2α] -9): 17.57 and 19.43 and 13.59
- IP1 accumulation response to PGF2α (dose-response source data) (FP R133A; log[PGF2α] -10): 9.93 and 11.01 and 11.54
- IP1 accumulation response to PGF2α (dose-response source data) (FP R133A; log[PGF2α] -11): 5.43 and 6.41 and 3.41
- IP1 accumulation response to PGF2α (dose-response source data) (FP R133A; log[PGF2α] -14): 0.27 and 6.69 and 6.06
- effect of mutation on agonist activity (in words) (FP mutant of C134): decreased PGF2α activity
- effect of mutation on agonist activity (in words) (FP Q250A): loss of PGF2α activity
- effect of mutation on agonist activity (in words) (FP R308A): loss of PGF2α activity
SMILES: CCCCC[C@H](O)/C=C/[C@@H]1[C@@H](C/C=C\CCCC(=O)O)[C@@H](O)C[C@H]1O [PGF2α, Prostaglandin F2α]
- effect of mutation on agonist activity (in words) (FP R133A; R133 / R133A mutant vs WT FP): decreased PGF2α activity; also recorded: loss of PGF2α activity
